Calls of active or inactive are those of the source. No cut-off for these calls is given here.
Experiments:
Fusobacterium nucleatum [1] = assay: Antimicrobial activity against Fusobacterium nucleatum biofilms assessed as decrease in viable cell count at 2 uM after 30 mins; type: functional, organism-based
Fusobacterium nucleatum [2] = assay: Antimicrobial activity against Fusobacterium nucleatum ATCC 49256 by broth dilution assay; type: functional
Fusobacterium nucleatum [3] = assay: Antimicrobial activity against Fusobacterium nucleatum ATCC 25586 by broth dilution assay; type: functional
Porphyromonas gingivalis = assay: Antimicrobial activity against Porphyromonas gingivalis W83 ATCC BAA0308 by broth dilution assay; type: functional
Pseudomonas aeruginosa = assay: Antimicrobial activity against Pseudomonas aeruginosa ATCC 47085 by broth dilution assay; type: functional
Streptococcus gordonii [4] = assay: Antimicrobial activity against Streptococcus gordonii DL1 ATCC 49818 planktonic cells at 25 uM after 30 mins; type: functional, organism-based
Streptococcus gordonii [5] = assay: Antimicrobial activity against Streptococcus gordonii DL1 ATCC 49818 by broth dilution assay; type: functional
Streptococcus gordonii [6] = assay: Antimicrobial activity against Streptococcus gordonii DL1 ATCC 49818 biofilms assessed as decrease in viable cell count at 25 uM after 30 mins; type: functional, organism-based
Fusobacterium nucleatum [7] = assay: Antimicrobial activity against Fusobacterium nucleatum planktonic cells at 2 uM after 30 mins; type: functional, organism-based

| Compound | Activity (Fusobacterium nucleatum [1]) | MBC (Fusobacterium nucleatum [2]) | MBC (Fusobacterium nucleatum [3]) | MBC (Porphyromonas gingivalis) | MBC (Pseudomonas aeruginosa) | Activity (Streptococcus gordonii [4]) | MBC (Streptococcus gordonii [5]) | Activity (Streptococcus gordonii [6]) | Activity (Fusobacterium nucleatum [7]) |
| --- | --- | --- | --- | --- | --- | --- | --- | --- | --- |
| CC1(C)S[C@@H]2[C@H](NC(=O)[C@H](N)c3ccc(O)cc3)C(=O)N2[C@H]1C(=O)O | inactive | – | – | – | – | – | – | – | – |
| Cc1ncc([N+](=O)[O-])n1CCO | inactive | – | – | – | – | – | – | – | – |
| H-RRWVRRVRRWVRRVVRVVRRWVRR-OH | – | 1 µM | 1 µM | 50 µM | 1 µM | Active | 12.5 µM | Active | Active |
